According to patent publication US20170103183A1, “Model Generation for Drug Determination” (NORWEGIAN UNIVERSITY OF SCIENCE AND TECHNOLOGY, priority 2015, published 2017):

System: AGS cells xenograft tumors
Experiment: Subcutaneous AGS xenograft tumors in Balb/c mice
Format: in vivo
Conditions: single agent, low dose (PI103 5 mg/kg/d; (5Z)-7-oxozeaenol 3 mg/kg/d)
Protocol: To validate the beneficial response to one of the combination predicted and validated in cell line experiments the inventors generated subcutaneously injected xenograft tumors in Balb/c mice. 100 μl of 2×10^5 AGS cells were mixed with 100 μl of Matrigel and injected subcutaneously n the right flanks of 40 mice. Tumors were allowed to grow for 4 weeks, and mice with palpable tumors (n=30) were randomized to four groups: control, PI103 (5 mg/kg/d), (5Z)-7-oxozeaenol (3 mg/kg/d) and combination group which received both PI103 (5 mg/kg/d) and (5Z)-7oxozeaenol (3 mg/kg/d). Mice were injected with inhibitors or vehicle three times per week for a total of seven injections. Tumors were measured twice weekly using callipers and estimated volume from the formula V=0.5*d12*d2, where d1 is shortest diameter and d2 is longest diameter of tumor. Randomization was set up so that tumor volume was similar among groups at onset of treatment. […] Similar results were obtained for Mann-Whitney tests.

| SMILES | activity of individual agent on tumor size compared to control |
| --- | --- |
| COc1cc(O)c2c(c1)/C=C/C[C@H](O)[C@H](O)C(=O)/C=C\C[C@H](C)OC2=O [(5Z)-7-oxozeaenol] | non-significant |
| Oc1cccc(-c2nc(N3CCOCC3)c3oc4ncccc4c3n2)c1 [PI103] | non-significant |
